Values of other authors, collected in paper PMC4284722, “Intrinsic Tryptophan Fluorescence in the Detection and Analysis of Proteins: A Focus on Förster Resonance Energy Transfer Techniques” (International Journal of Molecular Sciences, 2014).

Tested on: serum albumin
Design: method as in PMID 2313585, PMID 19683079
Conditions: nonspecific ligand of serum albumin

Question: With `O=S(=O)(O)c1cccc2cccc(Nc3ccccc3)c12` [ANS, 1-anilinonaphthalene-8-sulfonate] as the compound, how does the affinity read?
Answer: moderate affinity
